In patent publication US10941152B2, “Pyrazole compounds as modulators of FSHR and uses thereof” (TOCOPHERX, INC., priority 2014, dated 2021):

Assays:
[1] = molecular target: T1, FSHR (Homo sapiens, UniProt P23945); test: EC50 of cyclic AMP production in CHO FSHR cells + EC20 FSH (Assay A); format: cell-based; details: cyclic AMP production in CHO FSHR cells + EC20 FSH (0.265 pM), HTRF
T1 construct: expressed in transfected cells; host or cells: CHO (Cho-FSHR-LUC-1-1-43)
T1 sequence (P23945 18-695): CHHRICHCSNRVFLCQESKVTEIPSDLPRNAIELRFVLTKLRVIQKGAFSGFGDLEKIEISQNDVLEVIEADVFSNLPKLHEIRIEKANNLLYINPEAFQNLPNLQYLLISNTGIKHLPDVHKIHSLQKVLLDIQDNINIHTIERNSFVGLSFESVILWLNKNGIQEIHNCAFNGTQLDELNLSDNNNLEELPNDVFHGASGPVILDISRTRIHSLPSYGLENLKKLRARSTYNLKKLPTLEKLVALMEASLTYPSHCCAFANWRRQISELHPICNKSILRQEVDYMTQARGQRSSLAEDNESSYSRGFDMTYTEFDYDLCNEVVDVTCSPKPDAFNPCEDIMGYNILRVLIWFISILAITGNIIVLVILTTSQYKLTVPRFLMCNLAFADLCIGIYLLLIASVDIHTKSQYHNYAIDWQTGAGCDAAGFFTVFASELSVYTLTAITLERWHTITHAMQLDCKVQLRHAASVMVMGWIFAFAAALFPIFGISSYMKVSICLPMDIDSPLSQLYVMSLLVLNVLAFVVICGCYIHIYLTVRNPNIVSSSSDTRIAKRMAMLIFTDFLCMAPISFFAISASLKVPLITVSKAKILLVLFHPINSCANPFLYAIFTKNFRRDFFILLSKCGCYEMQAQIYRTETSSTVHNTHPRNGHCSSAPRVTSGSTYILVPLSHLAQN
Method in brief: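 cAMP was detected by HTRF as the 665/620 nm ratio. The CHO-FSHR cells had first been exposed for 1 h at 37° C to test compound together with 0.265 pM FSH (EC20) and 200 μM IBMX. Responses are given as percent of the FSH standard maximum.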

[2] = molecular target: T2, follicle-stimulating hormone (FSH) receptor (Rattus norvegicus, UniProt P20395); test: Rat granulosa EC50 FSH (Assay B); format: cell-based
T2 construct: endogenous in cells; host or cells: rat granulosa cells
T2 sequence (P20395 18-692): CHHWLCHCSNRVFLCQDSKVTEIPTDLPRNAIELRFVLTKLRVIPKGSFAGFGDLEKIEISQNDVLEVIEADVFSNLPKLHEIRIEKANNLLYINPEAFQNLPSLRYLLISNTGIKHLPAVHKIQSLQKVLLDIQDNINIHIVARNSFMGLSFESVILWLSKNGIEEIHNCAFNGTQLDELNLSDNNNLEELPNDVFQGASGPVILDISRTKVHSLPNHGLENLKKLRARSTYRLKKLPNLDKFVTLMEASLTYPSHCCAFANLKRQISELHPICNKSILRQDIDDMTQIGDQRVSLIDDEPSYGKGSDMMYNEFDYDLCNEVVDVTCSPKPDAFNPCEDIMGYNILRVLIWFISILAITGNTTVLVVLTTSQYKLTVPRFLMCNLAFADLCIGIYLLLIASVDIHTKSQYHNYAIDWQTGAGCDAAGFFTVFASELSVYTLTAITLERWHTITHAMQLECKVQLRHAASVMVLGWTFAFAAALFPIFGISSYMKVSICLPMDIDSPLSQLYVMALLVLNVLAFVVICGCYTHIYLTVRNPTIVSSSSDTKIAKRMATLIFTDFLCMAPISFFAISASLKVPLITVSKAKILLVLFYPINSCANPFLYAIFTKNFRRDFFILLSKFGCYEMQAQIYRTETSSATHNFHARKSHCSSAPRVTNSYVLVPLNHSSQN
Protocol: Example 25. Rat granulosa EC50 FSH (Assay B)
The assay was performed pursuant to the teaching of Yanofsky et al. (2006) Allosteric activation of the follicle-stimulating hormone (FSH) receptor by selective, nonpeptide agonists (JBC 281(19): 13226-13233, which is incorporated by reference in the disclosure of the invention).

EC50 [1]	EC50 [2]	Structure (SMILES)
< 10 nM	10 to 100 nM	COc1cc2c(cc1-c1nn(C)cc1Cl)-c1c(c(C(=O)N3CCOCC3(C)C)nn1-c1cc(F)cc(F)c1)CO2 [Compound 151]
10 to 100 nM	101 to 500 nM	COCC1(CC(C)C)CCCN1C(=O)c1nn(-c2ccsc2)c2c1COc1cc(OC)c(-c3ccn(C)n3)cc1-2 (stereo not drawn) [Compound 127, (2-isobutyl-2-(methoxymethyl)pyrrolidin-1-yl)(7-methoxy-8-(1-methyl-1H-pyrazol-3-yl)-1-(thiophen-3-yl)-1,4-dihydrochromeno[4,3-c]pyrazole-3-yl)methanone]
< 10 nM	101 to 500 nM	COc1cc2c(cc1-c1cncc(C(N)=O)c1)-c1c(c(C(=O)N(C)C(C)(C)C)nn1-c1ccccn1)CO2 [Compound 168]
10 to 100 nM	101 to 500 nM	COc1cc2c(cc1-c1cc(C#N)ccn1)-c1c(c(C(=O)N(C)C(C)(C)C)nn1-c1cc(Cl)cc(Cl)c1)CO2 [Compound 26, N-tert-butyl-8-(4-cyanopyridin-2-yl)-1-(3,5-dichlorophenyl)-7-methoxy-N-methyl-1,4-dihydrochromeno[4,3-c]pyrazole-3-carboxamide]
10 to 100 nM	> 500 nM	COc1cc(OC)cc(-n2nc(C(=O)N(C)C(C)(C)CCO)c3c2-c2cc(-c4ccn(C)n4)c(OC)cc2OC3)c1 [Compound 134, 1-(3,5-dimethoxyphenyl)-N-(4-hydroxy-2-methylbutan-2-yl)-7-methoxy-N-methyl-8-(1-methyl-1H-pyrazol-3-yl)-1,4-dihydrochromeno[4,3-c]pyrazole-3-carboxamide]
< 10 nM	101 to 500 nM	COc1cc2c(cc1-c1nc[nH]n1)-c1c(c(C(=O)N(C)C(C)(C)C)nn1-c1ccsc1)CO2 [Compound 207, N-tert-butyl-7-methoxy-N-methyl-1-(thiophen-3-yl)-8-(1H-1,2,4-triazol-3-yl)-1,4-dihydrochromeno[4,3-c]pyrazole-3-carboxamide]
< 10 nM	10 to 100 nM	COc1cc2c(cc1-c1cncc(C(N)=O)c1)-c1c(c(C(=O)N(C)C(C)(C)C#N)nn1-c1cc(F)cc(Cl)c1)CO2 [Compound 110, 8-(5-carbamoylpyridin-3-yl)-1-(3-chloro-5-fluorophenyl)-N-(2-cyanopropan-2-yl)-7-methoxy-N-methyl-1,4-dihydrochromeno[4,3-c]pyrazole-3-carboxamide]
< 10 nM	10 to 100 nM	COC(=O)c1cc(-c2cc3c(cc2OC)OCc2c(C(=O)N(C)C(C)(C)C)nn(-c4cc(F)cc(F)c4)c2-3)cnc1N [Compound 65, methyl 2-amino-5-(3-(tert-butyl(methyl)carbamoyl)-1-(3,5-difluorophenyl)-7-methoxy-1,4-dihydrochromeno[4,3-c]pyrazol-8-yl)nicotinate]
< 10 nM	101 to 500 nM	COc1cc2c(cc1-c1cncc(C#N)c1)-c1c(c(C(=O)N(C)C(C)(C)C)nn1-c1cc(Cl)cc(Cl)c1)CO2 [Compound 8, N-tert-butyl-8-(5-cyanopyridin-3-yl)-1-(3,5-dichlorophenyl)-7-methoxy-N-methyl-1,4-dihydrochromeno[4,3-c]pyrazole-3-carboxamide]
< 10 nM	< 10 nM	COc1cc(Cl)cc(-n2nc(C(=O)N3CCOCC3(C)C)c3c2-c2cc(-c4cncc(C(N)=O)c4)c(OC)cc2OC3)c1 [Compound 157]
< 10 nM	10 to 100 nM	COc1cc2c(cc1-c1cncc(C#N)c1)-c1c(c(C(=O)N3CC[S+]([O-])CC3(C)C)nn1-c1cc(F)cc(F)c1)CO2 (stereo not drawn) [Compound 49]
< 10 nM	10 to 100 nM	[2H]C([2H])([2H])Oc1cc(Cl)cc(-n2nc(C(=O)N(C)C(C)(C)C)c3c2-c2cc(-c4cncc(C(N)=O)c4)c(OC([2H])([2H])[2H])cc2OC3)c1 [Compound 158]
< 10 nM	101 to 500 nM	COc1cc2c(cc1-c1cncc(C(=O)O)c1)-c1c(c(C(=O)N(C)C(C)(C)C#N)nn1-c1cc(F)cc(F)c1)CO2 [Compound 107, 5-(3-((2-cyanopropan-2-yl)(methyl)carbamoyl)-1-(3,5-difluorophenyl)-7-methoxy-1,4-dihydrochromeno[4,3-c]pyrazole-8-yl)nicotinic acid]
< 10 nM	10 to 100 nM	COc1cc(OC)cc(-n2nc(C(=O)N(C)C(C)(C)CCO)c3c2-c2cc(-c4cccnc4F)c(OC)cc2OC3)c1 [Compound 135, 1-(3,5-dimethoxyphenyl)-8-(2-fluoropyridin-3-yl)-N-(4-hydroxy-2-methylbutan-2-yl)-7-methoxy-N-methyl-1,4-dihydrochromeno[4,3-c]pyrazole-3-carboxamide]
10 to 100 nM	101 to 500 nM	COc1cc2c(cc1-c1cnn(CC(N)=O)c1)-c1c(c(C(=O)N3CC[S+]([O-])CC3(C)C)nn1-c1cc(F)cc(F)c1)CO2 (stereo not drawn) [Compound 71]
< 10 nM	101 to 500 nM	COc1cc2c(cc1C1CC1C(N)=O)-c1c(c(C(=O)N(C)C(C)(C)C)nn1-c1cc(Cl)cc(Cl)c1)CO2 (stereo not drawn) [Compound 199]
< 10 nM	< 10 nM	CONC(=O)c1cncc(-c2cc3c(cc2OC)OCc2c(C(=O)N4CCOCC4(C)C)nn(-c4cc(Cl)cc(Cl)c4)c2-3)c1 [Compound 96, 5-(1-(3,5-dichlorophenyl)-3-(3,3-dimethylmorpholine-4-carbonyl)-7-methoxy-1,4-dihydrochromeno[4,3-c]pyrazol-8-yl)-N-methoxynicotinamide]
10 to 100 nM	101 to 500 nM	COc1cc2c(cc1-c1ccn(C)n1)-c1c(c(C(=O)N(C)C(C)(C)C)nn1-c1cc(F)cc(F)c1)CO2 [Compound 48, N-tert-butyl-1-(3,5-difluorophenyl)-7-methoxy-N-methyl-8-(1-methyl-1H-pyrazol-3-yl)-1,4-dihydrochromeno[4,3-c]pyrazole-3-carboxamide]
< 10 nM	10 to 100 nM	COc1cc(OC)cc(-n2nc(C(=O)N(C)C(C)(C)C)c3c2-c2cc(-c4cncc(C(N)=O)c4)c(OC)cc2OC3)c1 [Compound 160]
10 to 100 nM	> 500 nM	COc1cc2c(cc1-c1ccn(C)n1)-c1c(c(C(=O)N(C)C(C)(C)C#N)nn1-c1cc(F)cc(F)c1)CO2 [Compound 106, N-(2-cyanopropan-2-yl)-1-(3,5-difluorophenyl)-7-methoxy-N-methyl-8-(1-methyl-1H-pyrazol-3-yl)-1,4-dihydrochromeno[4,3-c]pyrazole-3-carboxamide]
10 to 100 nM	101 to 500 nM	COc1cc(OC)cc(-n2nc(C(=O)N3CC[S+]([O-])CC3(C)C)c3c2-c2cc(-c4ccccn4)c(OC)cc2OC3)c1 (stereo not drawn) [Compound 41, (1-(3,5-dimethoxyphenyl)-7-methoxy-8-(pyridin-2-yl)-1,4-dihydrochromeno[4,3-c]pyrazol-3-yl)(S-oxo-3,3-dimethylthiomorpholino)methanone]
< 10 nM	10 to 100 nM	COc1cc2c(cc1-c1cc(C#N)c[n+]([O-])c1)-c1c(c(C(=O)N3CCOCC3(C)C)nn1-c1cc(Cl)cc(Cl)c1)CO2 [Compound 177]
< 10 nM	101 to 500 nM	COC(=O)[C@H]1C[C@@H]1c1cc2c(cc1OC)OCc1c(C(=O)N(C)C(C)(C)C)nn(-c3cc(F)cc(F)c3)c1-2 (racemic) [Compound 206]
< 10 nM	101 to 500 nM	COc1cc2c(cc1-c1cc(F)cc(CO)c1)-c1c(c(C(=O)N(C)C(C)(C)C)nn1-c1cc(Cl)cc(Cl)c1)CO2 [Compound 80, N-tert-butyl-1-(3,5-dichlorophenyl)-8-(3-fluoro-5-(hydroxymethyl)phenyl)-7-methoxy-N-methyl-1,4-dihydrochromeno[4,3-c]pyrazole-3-carboxamide]
